Experimental data published in the NIST ThermoML archive (doi:10.1021/je0302001).

Assay: mn = molality of the nth substance listed, in mol/kg
Details: for surface tension liquid-gas: Ring tensiometer; for viscosity / speed of sound / mass density: 101.3 kPa, Liquid; for viscosity: Capillary tube (Ostwald / Ubbelohde) method

O=[N+]([O-])[O-].O=[N+]([O-])[O-].[Zn+2] [nitric acid, zinc salt] + O
Details | mass density [kg/m3] | speed of sound [m/s] | surface tension liquid-gas [mN/m] | viscosity [mPa·s]
293.15 K, m1 = 0.0875 | – | 1489.1 | – | –
293.15 K, m1 = 0.1329 | – | 1488.6 | – | 1.053
293.15 K, m1 = 0.2466 | – | 1494.3 | – | 1.086
293.15 K, m1 = 0.3388 | – | 1499 | – | 1.118
293.15 K, m1 = 0.6111 | – | 1514.8 | – | 1.21
293.15 K, m1 = 0.6405 | – | 1517 | – | 1.223
293.15 K, m1 = 1.113 | – | 1546 | – | 1.428
293.15 K, m1 = 1.258 | – | 1558.9 | – | 1.514
293.15 K, m1 = 1.551 | – | 1578.3 | – | 1.664
293.15 K, m1 = 1.906 | – | 1603.4 | – | 1.931
293.15 K, m1 = 2.145 | – | 1618.3 | – | 2.133
293.15 K, m1 = 2.29 | – | 1627.9 | – | 2.258
293.15 K, m1 = 2.292 | – | 1626.3 | – | –
293.15 K, m1 = 2.344 | – | 1631.6 | – | 2.273
293.15 K, m1 = 2.91 | – | 1666.2 | – | 2.846
293.15 K, m1 = 3.472 | – | 1697.2 | – | 3.61
293.15 K, m1 = 4.075 | – | 1724.9 | – | 4.615
293.15 K, m1 = 4.817 | – | 1752.8 | – | 6.303
293.15 K, m1 = 5.133 | – | – | 85.7 | –
293.15 K, m1 = 5.224 | – | 1762.1 | – | 7.371
293.15 K, m1 = 5.797 | – | 1777.6 | – | 9.658
293.15 K, m1 = 6.245 | – | – | 86.95 | –
293.15 K, m1 = 6.34 | – | 1787.7 | – | 11.98
293.15 K, m1 = 6.89 | – | 1796.2 | – | –
294.3 K, m1 = 0.0875 | 1010.8 | – | – | –
295.95 K, m1 = 4.075 | 1492.7 | – | – | –
296.1 K, m1 = 6.89 | 1712.4 | – | – | –
296.15 K, m1 = 0.2466 | 1034.3 | – | – | –
296.25 K, m1 = 4.817 | 1558.4 | – | – | –
296.5 K, m1 = 1.258 | 1177 | – | – | –
297.05 K, m1 = 0.3388 | 1047.7 | – | – | –
297.05 K, m1 = 1.906 | 1259.3 | – | – | –
297.5 K, m1 = 2.29 | 1304.8 | – | – | –
297.8 K, m1 = 0.6111 | 1087.1 | – | – | –
297.85 K, m1 = 0.1329 | 1016.6 | – | – | –
297.9 K, m1 = 2.292 | 1304.8 | – | – | –
297.95 K, m1 = 4.075 | 1491.1 | – | – | –
298 K, m1 = 2.344 | 1310.8 | – | – | –
298.05 K, m1 = 3.472 | 1432.6 | – | – | –
298.15 K, m1 = 0.0875 | – | 1502.8 | – | –
298.15 K, m1 = 0.1329 | – | 1501.5 | – | 0.937
298.15 K, m1 = 0.2466 | – | 1506.6 | – | 0.968
298.15 K, m1 = 0.3388 | – | 1512.2 | – | 0.997
298.15 K, m1 = 0.6111 | – | 1526.1 | – | 1.081
298.15 K, m1 = 0.6405 | – | 1527.3 | – | 1.093
298.15 K, m1 = 1.113 | – | 1554.3 | – | 1.278
298.15 K, m1 = 1.258 | – | 1570.5 | – | 1.355
298.15 K, m1 = 1.551 | – | 1584.3 | – | 1.489
298.15 K, m1 = 1.906 | – | 1606.9 | – | 1.725
298.15 K, m1 = 2.145 | – | 1620.9 | – | 1.903
298.15 K, m1 = 2.29 | – | 1633 | – | 2.009
298.15 K, m1 = 2.292 | – | 1628.3 | – | –
298.15 K, m1 = 2.344 | – | 1633.6 | – | 2.026
298.15 K, m1 = 2.91 | – | 1665.2 | – | 2.527
298.15 K, m1 = 3.472 | – | 1694.4 | – | 3.188
298.15 K, m1 = 4.075 | – | 1719.1 | – | 4.048
298.15 K, m1 = 4.817 | 1556.8 | 1748.7 | – | 5.473
298.15 K, m1 = 5.224 | – | 1755.5 | – | 6.362
298.15 K, m1 = 5.797 | – | 1769.4 | – | 8.228
298.15 K, m1 = 6.34 | – | 1777.8 | – | 10.12
298.15 K, m1 = 6.89 | – | 1783 | – | –
298.45 K, m1 = 0.0875 | 1009.7 | – | – | –
298.45 K, m1 = 5.224 | 1589.9 | – | – | –
298.65 K, m1 = 0.6405 | 1090.9 | – | – | –
298.75 K, m1 = 1.113 | 1156.5 | – | – | –
298.75 K, m1 = 2.91 | 1373.5 | – | – | –
298.85 K, m1 = 2.145 | 1286.9 | – | – | –
298.95 K, m1 = 1.258 | 1175.8 | – | – | –
299.05 K, m1 = 7.349 | 1738.2 | – | – | –
299.2 K, m1 = 1.906 | 1258 | – | – | –
299.6 K, m1 = 5.8 | 1633.1 | – | – | –
299.7 K, m1 = 0.2466 | 1033.3 | – | – | –
299.7 K, m1 = 1.551 | 1213.3 | – | – | –
299.7 K, m1 = 6.89 | 1708.8 | – | – | –
299.75 K, m1 = 2.29 | 1303.4 | – | – | –
300.05 K, m1 = 2.292 | 1303.4 | – | – | –
300.05 K, m1 = 3.472 | 1431.1 | – | – | –
300.05 K, m1 = 6.34 | 1671.6 | – | – | –
300.2 K, m1 = 2.344 | 1309.4 | – | – | –
300.35 K, m1 = 5.224 | 1588.3 | – | – | –
300.55 K, m1 = 0.3388 | 1046.5 | – | – | –
300.8 K, m1 = 0.6111 | 1085.9 | – | – | –
300.8 K, m1 = 2.91 | 1372.1 | – | – | –
301 K, m1 = 2.145 | 1285.5 | – | – | –
301.25 K, m1 = 1.113 | 1155.2 | – | – | –
301.35 K, m1 = 5.8 | 1631.5 | – | – | –
301.35 K, m1 = 6.89 | 1707.1 | – | – | –
301.4 K, m1 = 0.1329 | 1015.6 | – | – | –
301.4 K, m1 = 1.906 | 1256.6 | – | – | –
301.5 K, m1 = 1.258 | 1174.5 | – | – | –
301.55 K, m1 = 0.6405 | 1089.7 | – | – | –
301.85 K, m1 = 2.29 | 1302 | – | – | –
301.85 K, m1 = 4.075 | 1488 | – | – | –
301.85 K, m1 = 6.34 | 1669.9 | – | – | –
302 K, m1 = 1.551 | 1212 | – | – | –
302.1 K, m1 = 3.472 | 1429.5 | – | – | –
302.1 K, m1 = 4.817 | 1553.4 | – | – | –
302.2 K, m1 = 2.292 | 1302 | – | – | –
302.25 K, m1 = 2.344 | 1308.1 | – | – | –
302.25 K, m1 = 5.224 | 1586.5 | – | – | –
302.35 K, m1 = 0.0875 | 1008.6 | – | – | –
302.5 K, m1 = 7.349 | 1734.5 | – | – | –
302.9 K, m1 = 2.91 | 1370.6 | – | – | –
303.15 K, m1 = 0.0875 | – | 1514.4 | – | –
303.15 K, m1 = 0.1329 | – | 1513 | – | 0.841
303.15 K, m1 = 0.2263 | – | – | 71.91 | –
303.15 K, m1 = 0.2466 | 1032.1 | 1518.2 | – | 0.87
303.15 K, m1 = 0.334 | – | – | 71.94 | –
303.15 K, m1 = 0.3388 | – | 1520.9 | – | 0.896
303.15 K, m1 = 0.6111 | – | 1535.9 | – | 0.976
303.15 K, m1 = 0.6198 | – | – | 72.68 | –
303.15 K, m1 = 0.6405 | – | 1536.9 | – | 0.984
303.15 K, m1 = 0.8228 | – | – | 73.52 | –
303.15 K, m1 = 1.113 | – | 1561.1 | – | 1.15
303.15 K, m1 = 1.258 | – | 1571.6 | – | 1.221
303.15 K, m1 = 1.259 | – | – | 74.63 | –
303.15 K, m1 = 1.549 | – | – | 75.19 | –
303.15 K, m1 = 1.551 | – | 1589.3 | – | 1.34
303.15 K, m1 = 1.818 | – | – | 75.65 | –
303.15 K, m1 = 1.906 | – | 1610.2 | – | 1.549
303.15 K, m1 = 2.145 | 1284.1 | – | – | 1.711
303.15 K, m1 = 2.222 | – | – | 76.95 | –
303.15 K, m1 = 2.29 | – | – | – | 1.797
303.15 K, m1 = 2.344 | – | – | – | 1.819
303.15 K, m1 = 2.526 | – | – | 77.93 | –
303.15 K, m1 = 2.721 | – | – | 78.39 | –
303.15 K, m1 = 2.91 | – | – | – | 2.259
303.15 K, m1 = 3.426 | – | – | 80.38 | –
303.15 K, m1 = 3.472 | – | – | – | 2.839
303.15 K, m1 = 4.011 | – | – | 81.68 | –
303.15 K, m1 = 4.075 | – | – | – | 3.581
303.15 K, m1 = 4.231 | – | – | 82.16 | –
303.15 K, m1 = 4.817 | – | – | – | 4.795
303.15 K, m1 = 5.133 | – | – | 84.17 | –
303.15 K, m1 = 5.224 | – | – | – | 5.544
303.15 K, m1 = 5.797 | – | – | – | 7.1
303.15 K, m1 = 6.245 | – | – | 85.54 | –
303.15 K, m1 = 6.34 | – | – | – | 8.647
303.15 K, m1 = 6.89 | – | – | – | 10.85
303.15 K, m1 = 7.349 | – | – | – | 12.93
